Assay results as given in paper PMC9034499, “RORγt agonist enhances anti-PD-1 therapy by promoting monocyte-derived dendritic cells through CXCL10 in cancers” (Journal of Experimental & Clinical Cancer Research : CR, 2022).

How the values were obtained:
hRORγt LBD = molecular target: T1, hRORγt LBD (Homo sapiens, UniProt P51449); assay: RORγt GAL4 cell-based reporter gene assay; conditions: HEK293T host cells; read-out: EC50, RORγt agonist activity in Gal4 reporter gene assay
T1 construct: expressed in transfected cells; host or cells: HEK293T
T1 sequence (P51449 269-508 limits assumed): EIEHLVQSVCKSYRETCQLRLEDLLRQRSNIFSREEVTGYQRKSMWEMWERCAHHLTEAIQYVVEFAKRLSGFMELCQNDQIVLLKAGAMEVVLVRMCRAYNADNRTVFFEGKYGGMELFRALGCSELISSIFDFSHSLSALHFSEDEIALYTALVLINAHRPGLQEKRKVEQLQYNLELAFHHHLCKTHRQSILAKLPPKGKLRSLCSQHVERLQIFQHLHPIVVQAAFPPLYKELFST
Procedure: (§1) The hRORγt LBD coding sequence was inserted into a pBIND expression vector (Promega, E1581) to express the ROR-GAL4 binding domain chimeric receptors. This expression vector and a reporter vector (pGL4.35, which carries a stably integrated GAL4 promoter-driven luciferase reporter gene [luc2P/9XGAL4 UAS/Hygro]) were co-transfected into the HEK293T host cells. The assay was performed according to a previous study. EC50 of the sigmoidal fits were analyzed using Prism 5 and a four-parameter logistic fit equation, Y = bottom + (top–bottom) / (1 + 10(logEC50 − X) × hill slope). "X" is the log of compound concentration, and "Y" is the response, which increases as X increases. Y starts at "bottom" and goes to "top" with a sigmoid shape.

RORβ = molecular target: T2, RORβ (Homo sapiens, UniProt Q92753); assay: RORβ Gal4 reporter gene assay; type: cell-based
T2 construct: expressed in transfected cells
T2 sequence (Q92753 1-470): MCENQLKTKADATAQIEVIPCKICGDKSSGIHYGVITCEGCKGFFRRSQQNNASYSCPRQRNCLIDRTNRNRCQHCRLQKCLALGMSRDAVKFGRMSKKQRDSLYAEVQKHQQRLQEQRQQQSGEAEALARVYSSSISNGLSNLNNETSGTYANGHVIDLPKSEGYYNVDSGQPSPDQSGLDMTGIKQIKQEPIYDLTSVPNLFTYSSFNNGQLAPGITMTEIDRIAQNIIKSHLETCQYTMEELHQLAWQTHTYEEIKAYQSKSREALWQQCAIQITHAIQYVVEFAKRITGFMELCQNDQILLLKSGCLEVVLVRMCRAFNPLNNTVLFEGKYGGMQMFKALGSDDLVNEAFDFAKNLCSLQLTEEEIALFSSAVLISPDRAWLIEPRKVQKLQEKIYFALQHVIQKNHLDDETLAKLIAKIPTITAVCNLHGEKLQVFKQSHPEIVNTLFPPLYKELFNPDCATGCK
Procedure: as §1
Supplementary file 13046_2022_2289_MOESM2_ESM.pdf: Additional file 2: Fig. S2. Selectivity of RORγt agonists in vitro. […] Lymphoma EL4 cells were treated with various concentrations of 8-074 for 48 hours and analyzed by flow cytometry after Annexin V-FITC/PI staining. […] (h) The relative mRNA expression of Cd19 in B cells as determined by qPCR. […] (i) Relative mRNA expression of Il-1β levels in macrophages as determined by qPCR. ***P < 0.001. (j) Relative mRNA expression of Il-6 in macrophages as determined by qPCR. *P < 0.05. (k) Relative mRNA expression of Il-10 in macrophages as determined by qPCR. *P < 0.05. […]

EL4 cells = assay: Direct toxicity on tumor cells (apoptosis, CCK-8); type: cell-based; conditions: even at higher concentrations of 8-074
Procedure: To exclude the direct cytotoxic killing effect of 8-074 on tumor cells, we conducted an apoptosis assay, a cell proliferation assay, and a cytotoxic toxicity assay on tumor cells upon 8-074 treatment.
Supplementary file 13046_2022_2289_MOESM2_ESM.pdf: Additional file 2: Fig. S2. Selectivity of RORγt agonists in vitro. (a) The activity of 8-074 in Gal4 reporter gene assays with RORα and RORβ. (RORα EC50 > 10 μM, RORβ EC50 > 10 μM). (b) Summary of bioactivity and selectivity profiles for 8-074 using multiple assays. (c) 8-074 treated Type 17 T cells secreted more Th17 signature cytokines. IL-17F and IL-22 levels secreted by Type 17 T cells during differentiation were assayed by ELISA (*P < 0.05, **P < 0.01). (d) CCK-8 assay was used to determine the cell viability of EL4 cells after treating them with different 8-074 concentrations. Representative data are shown from three independent experiments. […] Lymphoma EL4 cells were treated with various concentrations of 8-074 for 48 hours and analyzed by flow cytometry after Annexin V-FITC/PI staining. […] (h) The relative mRNA expression of Cd19 in B cells as determined by qPCR. […] (i) Relative mRNA expression of Il-1β levels in macrophages as determined by qPCR. ***P < 0.001. (j) Relative mRNA expression of Il-6 in macrophages as determined by qPCR. *P < 0.05. (k) Relative mRNA expression of Il-10 in macrophages as determined by qPCR. *P < 0.05. […]

[1] = Drug toxicity evaluation by histopathology (H&E staining); type: in vivo, mice; conditions: 50 mg/kg or 100 mg/kg i.p. daily for two weeks
Procedure: We further explored the in vivo efficacy of 8-074. First, we conducted a drug toxicity evaluation by histopathology using H&E staining. […] Given the in vivo toxicity and body weight loss during dose escalation, we determined 50 mg/kg for use in the in vivo mechanistic study. The anti-tumor effect of 8-074 was also tested in two other murine syngeneic tumor models (B16F10 and MC38, which are models of melanoma and colon adenocarcinoma, respectively).
Supplementary file 13046_2022_2289_MOESM3_ESM.pdf: Additional file 3: Fig. S3. Selectivity and safety analysis of 8-074. (a) Representative hematoxylin and eosin (H&E) staining micrograph (200 ×) of heart, liver, lung, kidney, spleen, and intestine sections from mice receiving vehicle, 50 mg/kg, or 100 mg/kg 8-074 for two weeks. Scale bar = 100 μm. Vehicle, daily administration of 50 μL DMSO by intraperitoneal injection; 50 mg/kg and 100 mg/kg, daily administration of the corresponding dose (volume less than or equal to 50 μL) by intraperitoneal injection. The cell morphology, number, and distribution in heart, liver, lung, kidney, spleen, and intestine tissues after 8-074 injection were not different from those in the vehicle group. (b and c) Effects of 8-074 on body weight in mice. Data represents the mean ± SD from biological quadruplicates. All error bars represent mean ± SD. Data are from three independent experiments.

CCS(=O)(=O)c1ccc(CC(=O)Nc2ccc(-c3ccc(CC(C)C)c(C#N)c3)c(C(F)(F)F)c2)cc1 [8-074]
EC50 (hRORγt LBD): 119 nM
EC50 (RORβ): > 10000 nM
apoptosis in the tumor EL4 cells (EL4 cells): not observed
cytotoxicity on tumor cells (EL4 cells): not observed
histopathology, H&E staining of organs [1]: No noteworthy necrosis or other abnormality was observed
